The values that follow come from ChEMBL document CHEMBL1136096, “Design and biological evaluation of novel antioxidants containing N-t-Butyl-N-hydroxylaminophenyl moieties” (Bioorg Med Chem Lett, 2003).

Type in all cases: functional
For assay [1], the system named is Gerbillinae. Put plainly: In vitro inhibitory activity against lipid peroxidation in gerbils.
For assay [2], the system named is Gerbillinae. In words: In vivo neuroprotective activity in gerbils (neuronal cell survival) before ischemic injury.
Assay [3] deals with Gerbillinae. Put plainly: In vivo neuroprotective activity in gerbils (neuronal cell survival) after ischemic injury.

SMILES strings stand for the structures.

On to `CC(C)(C)N(O)c1ccc(C(=O)Nc2ccccn2)cc1`, for which the IC50 (commonly the concentration needed to halve the response being measured) in the assay on Gerbillinae [1] was determined as 4.3 µM.
As for `CC(C)(C)N(O)c1ccc(C(=O)Nc2nccs2)cc1`, the “Cell Survival” value was 57% in the assay on Gerbillinae [2] and 81% with Gerbillinae [3]. Besides, the IC50 in the assay on Gerbillinae [1] came to 1.44 µM.
The compound `CC(C)(C)N(O)c1ccc(C(=O)NCc2ccccn2)cc1` yielded an IC50 in the assay with Gerbillinae [1] of 11.1 µM.
With `O=c1c2ccccc2[se]n1-c1ccccc1` [EBSELEN], the “Cell Survival” value in the assay on Gerbillinae [2] and with Gerbillinae [3] was 58% each time. Further, in the assay with Gerbillinae [1], the IC50 was determined as 68.9 µM.
